Calls of active or inactive are those of the source. No cut-off for these calls is given here.
How the values were obtained:
[1] = target: T1, N(G),N(G)-dimethylarginine dimethylaminohydrolase 1 (Homo sapiens, UniProt O94760); assay: Inhibition of recombinant human DDAH1 expressed in Escherichia coli BL21 Star (DE3) using SMTC as substrate assessed as decrease in L-citrulline and methanethiol production by CPM-based fluorimetric assay
[2] = target: Transforming growth factor beta (Homo sapiens) (UniProt P01137+P61812+P10600); assay: Inhibition of TGF-beta-induced acid-soluble collagen levels in lung fibroblasts isolated from late stage idiopathic pulmonary fibrosis patient at 20 uM after 24 hrs by sircol collagen assay; format: protein assay
Transforming growth factor beta (Homo sapiens), sequence (P01137 whole entry, looked up): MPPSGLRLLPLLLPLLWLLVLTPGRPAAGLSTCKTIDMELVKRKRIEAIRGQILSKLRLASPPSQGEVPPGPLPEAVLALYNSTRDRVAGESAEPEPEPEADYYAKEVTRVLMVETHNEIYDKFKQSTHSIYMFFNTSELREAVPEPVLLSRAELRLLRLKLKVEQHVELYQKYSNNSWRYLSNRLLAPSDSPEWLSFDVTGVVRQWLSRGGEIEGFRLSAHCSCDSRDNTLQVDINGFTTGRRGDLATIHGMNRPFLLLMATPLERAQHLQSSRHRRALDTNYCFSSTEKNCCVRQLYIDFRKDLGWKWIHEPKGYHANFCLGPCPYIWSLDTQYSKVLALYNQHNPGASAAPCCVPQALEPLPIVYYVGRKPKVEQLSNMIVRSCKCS
Transforming growth factor beta (Homo sapiens), sequence (P10600 whole entry, looked up): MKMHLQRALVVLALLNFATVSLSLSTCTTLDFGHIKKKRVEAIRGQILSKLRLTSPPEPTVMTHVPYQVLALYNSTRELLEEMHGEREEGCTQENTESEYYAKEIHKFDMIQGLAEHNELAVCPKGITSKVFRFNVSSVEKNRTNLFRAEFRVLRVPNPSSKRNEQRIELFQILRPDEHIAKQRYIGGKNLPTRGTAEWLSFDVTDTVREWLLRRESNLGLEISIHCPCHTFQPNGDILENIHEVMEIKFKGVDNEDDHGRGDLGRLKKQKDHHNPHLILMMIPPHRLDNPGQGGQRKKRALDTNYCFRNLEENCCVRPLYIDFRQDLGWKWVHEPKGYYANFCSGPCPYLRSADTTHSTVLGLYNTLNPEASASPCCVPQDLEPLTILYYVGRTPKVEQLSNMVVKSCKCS
Transforming growth factor beta (Homo sapiens), sequence (P61812 whole entry, looked up): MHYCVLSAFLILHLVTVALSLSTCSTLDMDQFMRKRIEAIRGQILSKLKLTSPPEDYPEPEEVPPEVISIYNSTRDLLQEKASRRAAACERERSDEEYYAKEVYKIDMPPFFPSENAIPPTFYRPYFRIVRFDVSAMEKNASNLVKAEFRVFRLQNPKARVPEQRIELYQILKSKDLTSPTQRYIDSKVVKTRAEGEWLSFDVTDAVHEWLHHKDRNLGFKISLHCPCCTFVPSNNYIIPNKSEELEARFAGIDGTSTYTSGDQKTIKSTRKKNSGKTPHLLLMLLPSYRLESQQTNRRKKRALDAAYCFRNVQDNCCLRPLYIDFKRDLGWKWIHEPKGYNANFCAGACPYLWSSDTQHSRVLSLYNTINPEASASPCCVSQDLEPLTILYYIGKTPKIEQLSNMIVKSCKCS

[3] = target: T1, N(G),N(G)-dimethylarginine dimethylaminohydrolase 1; assay: Inhibition of DDAH in bronchial epithelial cells isolated from chronic obstructive pulmonary disease patient assessed as upregulation of HO1 gene expression at 5 to 50 uM after 24 hrs relative to vehicle-treated control; format: cell-based; settings: Epithelial cell
[4] = target: T1, N(G),N(G)-dimethylarginine dimethylaminohydrolase 1; assay: Inhibition of DDAH in fibroblasts isolated from idiopathic pulmonary fibrosis patient assessed as downregulation of ITGB1 gene expression at 5 to 50 uM relative to vehicle-treated control
[5] = target: T1, N(G),N(G)-dimethylarginine dimethylaminohydrolase 1; assay: Inhibition of DDAH in fibroblasts isolated from idiopathic pulmonary fibrosis patient assessed as downregulation of ITGB3 gene expression at 5 to 50 uM relative to vehicle-treated control
[6] = target: T1, N(G),N(G)-dimethylarginine dimethylaminohydrolase 1; assay: Inhibition of DDAH in fibroblasts isolated from idiopathic pulmonary fibrosis patient assessed as downregulation of TGFBR1 gene expression at 5 to 50 uM relative to vehicle-treated control
[7] = target: T1, N(G),N(G)-dimethylarginine dimethylaminohydrolase 1; assay: Inhibition of DDAH in fibroblasts isolated from chronic obstructive pulmonary disease patient assessed as upregulation of HO1 gene expression at 5 to 50 uM after 24 hrs relative to vehicle-treated control
[8] = target: T1, N(G),N(G)-dimethylarginine dimethylaminohydrolase 1; assay: Inhibition of DDAH in HMEC1 assessed as increase in intracellular ADMA levels at 20 uM after 24 hrs by ELISA relative to vehicle-treated control; format: cell-based
[9] = target: T1, N(G),N(G)-dimethylarginine dimethylaminohydrolase 1; assay: Inhibition of DDAH in bronchial epithelial cells isolated from chronic obstructive pulmonary disease patient assessed as downregulation of TNF-alpha gene expression at 5 to 50 uM after 24 hrs relative to vehicle-treated control; format: cell-based; settings: Epithelial cell
[10] = target: T1, N(G),N(G)-dimethylarginine dimethylaminohydrolase 1; assay: Inhibition of DDAH in fibroblasts isolated from idiopathic pulmonary fibrosis patient assessed as downregulation of BMP2 gene expression at 5 to 50 uM relative to vehicle-treated control
[11] = target: T1, N(G),N(G)-dimethylarginine dimethylaminohydrolase 1; assay: Inhibition of recombinant human DDAH1 expressed in Escherichia coli BL21 Star (DE3) using ADMA as substrate assessed as decrease in citrulline production at 50 uM after 4 hrs by colorimetric method
[12] = target: T1, N(G),N(G)-dimethylarginine dimethylaminohydrolase 1; assay: Inhibition of DDAH in human A549 cells assessed as decrease in serum-stimulated cell proliferation at 20 uM preincubated for 2 hrs followed by fetal bovine serum addition measured 24 hrs post compound treatment by BrdU incorporation assay; format: cell-based
[13] = target: T1, N(G),N(G)-dimethylarginine dimethylaminohydrolase 1; assay: Inhibition of recombinant human DDAH1 expressed in Escherichia coli BL21 Star (DE3) using SMTC as substrate assessed as decrease in L-citrulline and methanethiol production at 50 uM by CPM-based fluorimetric assay
[14] = target: T1, N(G),N(G)-dimethylarginine dimethylaminohydrolase 1; assay: Inhibition of DDAH in fibroblasts isolated from idiopathic pulmonary fibrosis patient assessed as downregulation of BMPR2 gene expression at 5 to 50 uM relative to vehicle-treated control
[15] = target: T1, N(G),N(G)-dimethylarginine dimethylaminohydrolase 1; assay: Inhibition of DDAH in fibroblasts isolated from idiopathic pulmonary fibrosis patient assessed as downregulation of MMP8 gene expression at 5 to 50 uM relative to vehicle-treated control
[16] = target: T1, N(G),N(G)-dimethylarginine dimethylaminohydrolase 1; assay: Inhibition of DDAH in fibroblasts isolated from idiopathic pulmonary fibrosis patient assessed as downregulation of […] gene expression at 5 to 50 uM relative to vehicle-treated control
[17] = target: T1, N(G),N(G)-dimethylarginine dimethylaminohydrolase 1; assay: Inhibition of DDAH in fibroblasts isolated from idiopathic pulmonary fibrosis patient assessed as downregulation of ITGB5 gene expression at 5 to 50 uM relative to vehicle-treated control
[18] = target: T1, N(G),N(G)-dimethylarginine dimethylaminohydrolase 1; assay: Inhibition of DDAH in fibroblasts isolated from idiopathic pulmonary fibrosis patient assessed as downregulation of ITGB6 gene expression at 5 to 50 uM relative to vehicle-treated control
[19] = target: T1, N(G),N(G)-dimethylarginine dimethylaminohydrolase 1; assay: Inhibition of DDAH in fibroblasts isolated from idiopathic pulmonary fibrosis patient assessed as downregulation of BMP4 gene expression at 5 to 50 uM relative to vehicle-treated control
[20] = target: T1, N(G),N(G)-dimethylarginine dimethylaminohydrolase 1; assay: Inhibition of DDAH in fibroblasts isolated from late idiopathic pulmonary fibrosis patient assessed as upregulation of HO1 gene expression at 50 uM relative to control
[21] = target: T1, N(G),N(G)-dimethylarginine dimethylaminohydrolase 1; assay: Inhibition of DDAH in fibroblasts isolated from idiopathic pulmonary fibrosis patient assessed as downregulation of SMAD6 gene expression at 5 to 50 uM relative to vehicle-treated control
[22] = target: T1, N(G),N(G)-dimethylarginine dimethylaminohydrolase 1; assay: Inhibition of DDAH in fibroblasts isolated from idiopathic pulmonary fibrosis patient assessed as downregulation of TGFB1 gene expression at 5 to 50 uM relative to vehicle-treated control
[23] = target: T1, N(G),N(G)-dimethylarginine dimethylaminohydrolase 1; assay: Inhibition of recombinant human DDAH1 expressed in Escherichia coli BL21 Star (DE3) using ADMA as substrate assessed as decrease in citrulline production at 50 uM preincubated with protein followed by substrate addition by colorimetric method
[24] = target: T1, N(G),N(G)-dimethylarginine dimethylaminohydrolase 1; assay: Inhibition of DDAH in fibroblasts isolated from idiopathic pulmonary fibrosis patient assessed as downregulation of ITGB8 gene expression at 5 to 50 uM relative to vehicle-treated control
[25] = target: T1, N(G),N(G)-dimethylarginine dimethylaminohydrolase 1; assay: Inhibition of DDAH in fibroblasts isolated from idiopathic pulmonary fibrosis patient assessed as downregulation of ITGA5 gene expression at 5 to 50 uM relative to vehicle-treated control
[26] = target: T1, N(G),N(G)-dimethylarginine dimethylaminohydrolase 1; assay: Inhibition of DDAH in fibroblasts isolated from idiopathic pulmonary fibrosis patient assessed as downregulation of TGFBR2 gene expression at 5 to 50 uM relative to vehicle-treated control
[27] = target: T1, N(G),N(G)-dimethylarginine dimethylaminohydrolase 1; assay: Inhibition of DDAH in fibroblasts isolated from early idiopathic pulmonary fibrosis patient assessed as upregulation of HO1 gene expression at 50 uM relative to control
[28] = target: T1, N(G),N(G)-dimethylarginine dimethylaminohydrolase 1; assay: Inhibition of DDAH in fibroblasts isolated from idiopathic pulmonary fibrosis patient assessed as downregulation of BMPR1B gene expression at 5 to 50 uM relative to vehicle-treated control
[29] = target: T1, N(G),N(G)-dimethylarginine dimethylaminohydrolase 1; assay: Inhibition of DDAH in bronchial epithelial cells isolated from chronic obstructive pulmonary disease patient assessed as downregulation of TRPV1 gene expression at 5 to 50 uM after 24 hrs relative to vehicle-treated control; format: cell-based; settings: Epithelial cell
[30] = target: T1, N(G),N(G)-dimethylarginine dimethylaminohydrolase 1; assay: Inhibition of DDAH in human A549 cells assessed as reduction in intracellular nitric oxide levels at 10 to 100 uM after 24 hrs by Griess assay; format: cell-based
[31] = target: T1, N(G),N(G)-dimethylarginine dimethylaminohydrolase 1; assay: Inhibition of DDAH in human A549 cells assessed as increase in intracellular ADMA levels at 10 to 100 uM after 24 hrs by ELISA relative to vehicle-treated control; format: cell-based
[32] = target: T1, N(G),N(G)-dimethylarginine dimethylaminohydrolase 1; assay: Inhibition of DDAH in lung fibroblasts isolated from late stage idiopathic pulmonary fibrosis patient assessed as reduction of TGF-beta-induced acid-soluble collagen levels at 100 uM after 24 hrs by sircol collagen assay
[33] = Cytotoxicity against human A549 cells up to 300 uM by lactate dehydrogenase release assay; format: cell-based
[34] = target: T1, N(G),N(G)-dimethylarginine dimethylaminohydrolase 1; assay: Inhibition of DDAH in lung fibroblasts isolated from late stage idiopathic pulmonary fibrosis patient assessed as reduction of TGF-beta-induced acid-soluble collagen levels at 50 uM after 24 hrs by sircol collagen assay
[35] = target: N(G),N(G)-dimethylarginine dimethylaminohydrolase 1 (Mus musculus) (UniProt Q9CWS0); assay: Inhibition of DDAH in mouse MLE12 cells assessed as decrease in serum-stimulated cell proliferation at 3 to 100 uM preincubated for 2 hrs followed by fetal bovine serum addition measured 24 hrs post compound treatment by BrdU incorporation assay; format: cell-based
N(G),N(G)-dimethylarginine dimethylaminohydrolase 1 (Mus musculus), sequence (Q9CWS0 whole entry): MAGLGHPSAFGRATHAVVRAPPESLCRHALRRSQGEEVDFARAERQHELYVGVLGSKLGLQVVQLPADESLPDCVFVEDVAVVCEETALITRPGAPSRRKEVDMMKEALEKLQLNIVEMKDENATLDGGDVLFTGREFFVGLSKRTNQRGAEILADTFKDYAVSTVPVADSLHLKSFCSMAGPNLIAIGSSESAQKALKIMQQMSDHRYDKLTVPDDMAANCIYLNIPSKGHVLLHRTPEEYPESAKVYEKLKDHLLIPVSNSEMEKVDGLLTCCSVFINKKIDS

[36] = target: T1, N(G),N(G)-dimethylarginine dimethylaminohydrolase 1; assay: Inhibition of DDAH in human A549 cells assessed as reduction of A23187-induced apoptosis by measuring […] in mono and oligo nucleosome content at 20 to 100 uM after 24 hrs; format: cell-based
[37] = target: T1, N(G),N(G)-dimethylarginine dimethylaminohydrolase 1; assay: Inhibition of DDAH in human A549 cells assessed as downregulation of iNOS expression at 50 to 100 uM after 24 hrs by Western blot method; format: cell-based
[38] = target: T1, N(G),N(G)-dimethylarginine dimethylaminohydrolase 1; assay: Reversible inhibition of recombinant human DDAH1 expressed in Escherichia coli BL21 Star (DE3) using SMTC as substrate assessed as decrease in L-citrulline and methanethiol production at 1 to 100 times IC50 preincubated for 1 hr followed by 100 fold dilution by CPM-based fluorimetric assay
[39] = target: T1, N(G),N(G)-dimethylarginine dimethylaminohydrolase 1; assay: Inhibition of DDAH in human A549 cells assessed as decrease in serum-stimulated cell proliferation at 3 to 100 uM preincubated for 2 hrs followed by fetal bovine serum addition measured 24 hrs post compound treatment by BrdU incorporation assay; format: cell-based
[40] = target: T1, N(G),N(G)-dimethylarginine dimethylaminohydrolase 1; assay: Inhibition of recombinant human DDAH1 expressed in Escherichia coli BL21 Star (DE3) using ADMA as substrate assessed as decrease in citrulline production after 4 hrs by colorimetric method
[41] = Cytotoxicity against mouse MLE12 cells up to 300 uM by lactate dehydrogenase release assay; format: cell-based
[42] = target: N(G),N(G)-dimethylarginine dimethylaminohydrolase 1 (Mus musculus) (UniProt Q9CWS0); assay: Inhibition of DDAH in mouse MLE12 cells assessed as decrease in serum-stimulated cell proliferation at 50 to 100 uM preincubated for 2 hrs followed by fetal bovine serum addition measured 24 hrs post compound treatment by BrdU incorporation assay; format: cell-based
[43] = target: T1, N(G),N(G)-dimethylarginine dimethylaminohydrolase 1; settings: A549, 50 to 100 uM
Description: Inhibition of DDAH in human A549 cells assessed as decrease in serum-stimulated cell proliferation at 50 to 100 uM preincubated for 2 hrs followed by fetal bovine serum addition measured 24 hrs post compound treatment by BrdU incorporation assay

[44] = target: T1, N(G),N(G)-dimethylarginine dimethylaminohydrolase 1; assay: Inhibition of DDAH in lung fibroblasts isolated from late stage idiopathic pulmonary fibrosis patient assessed as reduction of TGF-beta-induced acid-soluble collagen levels at 20 uM after 24 hrs by sircol collagen assay

T1 sequence (O94760 whole entry): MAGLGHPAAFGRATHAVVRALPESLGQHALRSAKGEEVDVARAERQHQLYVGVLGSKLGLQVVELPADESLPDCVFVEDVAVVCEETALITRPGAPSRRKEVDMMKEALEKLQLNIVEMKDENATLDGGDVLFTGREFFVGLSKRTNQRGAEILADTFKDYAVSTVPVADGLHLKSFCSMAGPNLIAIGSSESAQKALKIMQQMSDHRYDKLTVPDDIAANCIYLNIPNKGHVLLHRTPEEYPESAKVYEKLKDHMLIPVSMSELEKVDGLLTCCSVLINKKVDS

Molecule: CC1=CC(=O)C=C(C)C1=NS(=O)(=O)c1ccccc1
- IC50 [1]: 9.03 µM

Molecule: C/N=c1\nc(-c2ccccc2)n(-c2ccccc2)s1
- IC50 [1]: 13.2 µM

Molecule: 4-[sequence] ACID
- inhibition [1]: Active

Molecule: Cc1cccc(-c2nn(C(=S)Nc3ccccc3)cc2-c2ccnc3ccccc23)n1
- inhibition [2]: Active

Molecule: CC1=CC(=O)C(Cl)=C(C)/C1=N/S(=O)(=O)c1ccc(C)cc1
- IC50 [1]: 5.5 µM

Molecule: COc1ccc2[nH]c([S@@+]([O-])Cc3ncc(C)c(OC)c3C)nc2c1
- fold change (FC) [3]: 4
- inhibition [4]: Active
- inhibition [5]: Active
- inhibition [6]: Active
- fold change (FC) [7]: 10
- inhibition [8]: 37%
- inhibition [9]: Active
- inhibition [10]: Active
- inhibition [11]: Active
- inhibition [12]: Active
- inhibition [13]: Active
- inhibition [14]: Active
- inhibition [15]: Active
- inhibition [16]: Active
- inhibition [17]: Active
- inhibition [18]: Active
- inhibition [19]: Active
- fold change (FC) [20]: 2.5
- inhibition [21]: Active
- inhibition [22]: Active
- inhibition [23]: Active
- inhibition [24]: Active
- inhibition [25]: Active
- inhibition [26]: Active
- fold change (FC) [27]: 5
- inhibition [28]: Active
- inhibition [29]: Active

Molecule: PHENYLMERCURIC ACETATE
- IC50 [1]: < 0.78 µM

Molecule: COc1ccc2[nH]c([S+]([O-])Cc3ncc(C)c(OC)c3C)nc2c1 (stereo not drawn) [OMEPRAZOLE]
- inhibition [30]: Active
- inhibition [31]: Active
- inhibition [32]: Active
- inhibition [11]: Active
- inhibition [13]: Active
- Activity [33]: Non-Toxic
- inhibition [34]: Active
- inhibition [23]: Active
- inhibition [35]: Active
- inhibition [36]: Active
- inhibition [37]: Active
- inhibition [38]: Active
- inhibition [39]: Active
- IC50 [40]: 20 to 85 µM
- inhibition [40]: Dose-dependent effect
- Activity [41]: Non-Toxic

Molecule: COc1ccnc(C[S+]([O-])c2nc3cc(OC(F)F)ccc3[nH]2)c1OC (stereo not drawn) [PANTOPRAZOLE]
- IC50 [40]: 63 µM

Molecule: COCCNC(=N)NCCC[C@H](N)C(=O)O
- inhibition [8]: 68%
- inhibition [34]: Active
- inhibition [42]: Active
- inhibition [43]: Active

Molecule: N=C1Sc2ccccc2C2=NCCCN12
- inhibition [1]: Dose-dependent effect
- inhibition [8]: 84%
- inhibition [11]: Active
- inhibition [13]: Active

Molecule: COc1ccc2[nH]c([S+]([O-])Cc3ncc(C)c(OC)c3C)nc2n1 (stereo not drawn)
- inhibition [11]: Active
- inhibition [23]: Active
- inhibition [40]: Dose-dependent effect

Molecule: CP(=O)(O)c1nc2ccccc2s1
- IC50 [40]: 9.9 µM

Molecule: O=c1c2ccccc2[se]n1-c1ccccc1
- inhibition [1]: Active

Molecule: COCCCOc1ccnc(C[S+]([O-])c2nc3ccccc3[nH]2)c1C (stereo not drawn)
- inhibition [11]: Active
- inhibition [12]: Active
- inhibition [13]: Active
- inhibition [23]: Active

Molecule: Cc1c(OCC(F)(F)F)ccnc1C[S+]([O-])c1nc2ccccc2[nH]1 (stereo not drawn)
- inhibition [44]: Active
- inhibition [11]: Active
- inhibition [12]: Active
- inhibition [13]: Active
- inhibition [23]: Active
- inhibition [40]: Dose-dependent effect
